We go through five compounds from patent publication US4462992A, “Nitroimidazole radiosensitizers for hypoxic tumor cells and compositions thereof” (priority 1982, dated 1984).

Data set [1] relates to Chinese hamster cells line V-79. Briefly: Radiosensitization (enhancement ratio, cobalt-60 irradiation of hypoxic cells). The class given is cell-based. As to the method:
(§1) Asynchronous monolayers of cultures of Chinese hamster cells line V-79 were employed in all experiments. The monolayers were derived from exponentially growing cultures. Methods of culturing and handling have been reported earlier by Cooke et al, Rad. Res. 65, 152 (1976). The plated cultures were rendered hypoxic in sealed dural containers capable of holding seven petri dishes, by purging with nitrogen (oxygen-free grade) for one hour. Irradiation was carried out by using a cobalt-60 source at a dose rate of approximately 240 rad/min according to the procedure described by Agrawal et al Rad. Res. 78:532 (1979). A dose of 1400 rad was given to hypoxic cells in glass petri dishes in the presence of a given drug concentration (2000 cells/dish). Cell survival was estimated from unirradiated toxic hypoxic cells exposed to the same drug concentration. Complete survival curves were obtained for each compound at the radiation doses of 400 to 3000 rad. The Do value was calculated for each compound and the ratio of the Do value for the hypoxic control cells to the Do value of the hypoxic drug treated cells provided the sensitized enhancement ratio of the corresponding agent.
(§2) Cultures were incubated for 6 days at 37° C. in an atmosphere of 5% CO2. The resulting colonies were fixed in absolute ethanol and stained with methylene blue and counted.

A short description of data set [2]: In vitro cytotoxicity in oxic cells (% survival). The class given is cell-based, Chinese hamster. The conditions noted are these: hamster, v-79 cells, oxic; for viability at 2 h, 100 µM / viability at 4 h, 100 µM: 0.1 mM; for viability at 2 h, 500 µM / viability at 4 h, 500 µM: 0.5 mM. The procedure: as §1, §2
(§3) To determine toxicity in vitro, glass petri dishes containing approximately 200 Chinese hamster cells/dish were exposed to a range of concentrations of each drug for 2 hours and/or 4 hours at 37° C. Drug concentrations between 10 μM and 0.5 mM were employed initially.

Data set [3] has as its system Chinese hamster cells line V-79 (oxic). In words: In vitro cytotoxicity in oxic cells (% survival). In kind it is cell-based. The conditions noted are these: 4 hours, 240 min. As to the method: as §1, §2, §3
Data set [4] has as its system hypoxic cells (Chinese hamster cells line V-79). In words: Differential toxicity to hypoxic cells at 4 hours. The class given is cell-based. As to the method:
as §1, §3

A short description of data set [5]: In vitro cytotoxicity in hypoxic cells (% survival). The class given is cell-based, Chinese hamster. The following applies: hamster, v-79 cells; for viability at 2 h, 100 µM / viability at 4 h, 100 µM: 0.1 mM; for viability at 2 h, 500 µM / viability at 4 h, 500 µM: 0.5 mM. As to the method: as §1, §2, §3
The nature of another data set: in vivo. The conditions noted are these: mouse, ip. As to the method: Neurotoxicity in mice was determined using mice of strain CDF1. This was carried out by (1) determining the LD50 of each compound in mice and (2) observing the animals for acute neurotoxic symptoms such as convulsions. The drugs were either solubilized or suspended in normal saline and administered intraperitoneally to groups of ten mice. […]

The subject of the next data set is hypoxic tumor cells. The conditions noted are these: cited from earlier work.
A further data set has as its system central nervous system. The conditions noted are these: cited from earlier work.
[6] abbreviates: 2 hours, 0.01 mM, read-out: In vitro cytoxicity in oxic cells (% survival at 2 hours).
The mark [7] stands for this setting: 2 hours, 0.05 mM, read-out: In vitro cytoxicity in oxic cells (% survival at 2 hours).
Where [8] appears, read: 2 hours, read-out: In vitro cytoxicity in oxic cells (% survival at 2 hours).
The mark [9] stands for this setting: 4 hours, read-out: In vitro cytoxicity in oxic cells (% survival at 4 hours).
The mark [10] stands for this setting: 2 hours, read-out: In vitro cytoxicity in hypoxic cells (% survival at 2 hours).
Where [11] appears, read: 4 hours, read-out: In vitro cytoxicity in hypoxic cells (% survival at 4 hours).

Where two headings read alike, the source gives them in different places.

`CC(=O)OC[C@H]1O[C@@H](n2ccnc2[N+](=O)[O-])C=C[C@@H]1OC(C)=O` [C, 1(4',6di-O--acetyl2',3didehydro-2',3dideoxy-D-erythro-hexopyranosyl)-2-ni roimidazole]: the “Radiosensitization (enhancement ratio in Chinese hamster cells)” value in data set [1] (0.5 mM) was 1.6. Moreover, the viability at 2 h, 10 µM in data set [2] (setting [6]) came out at 101%. Also, the viability at 2 h, 50 µM in data set [2] (setting [7]) was found to be 100%. Moreover, the viability at 2 h, 100 µM in data set [2] (setting [8]) stood at 95%; in data set [5] (setting [10]), 104%. Moreover, the viability at 2 h, 500 µM in data set [2] (setting [8]) worked out at 97%; in data set [5] (setting [10]) it was 92.6%. The viability at 4 h, 100 µM in data set [2] (setting [9]) was found to be 101%; in data set [5] (setting [11]) it was 86.6%. In addition, the viability at 4 h, 500 µM in data set [2] (setting [9]) amounted to 103%; in data set [5] (setting [11]) it was 41.1%. For the same compound, the “In vitro cytoxicity in oxic cells (% survival at 4 hours)” value in data set [3] (0.1 mM, 100 µM) is 94%; in data set [3] (0.5 mM, 500 µM), 88%. In data set [4], the “Differential toxicity to hypoxic cells at 4 hours” value (shortened to “Differential toxicity”) is “Yes”.

One may read the LD50 as the dose at which mortality reaches 50%. On to `O=[N+]([O-])c1nccn1[C@@H]1C=C[C@H](O)[C@@H](CO)O1` [A, 1(2',3didehydro-2',3dideoxy-D-erythro-hexopyranonyl)-2-nitroimidazole], for which the “Radiosensitization (enhancement ratio in Chinese hamster cells)” value is on record as 2.0 in data set [1] (0.25 mM) and 2.2 in data set [1] (0.5 mM). Moreover, the viability at 2 h, 100 µM in data set [2] (setting [8]) was 99%; in data set [5] (setting [10]), 97.3%. The viability at 2 h, 250 µM in data set [2] (2 hours, 0.25 mM, read-out: In vitro cytoxicity in oxic cells (% survival at 2 hours)) is 104%; in data set [5] (2 hours, 0.25 mM, read-out: In vitro cytoxicity in hypoxic cells (% survival at 2 hours)), 92%. In addition, the figures for the viability at 2 h, 500 µM in data set [2] (setting [8]) and in data set [5] (setting [10]) were 90% and 75.9%, respectively. The viability at 2 h, 1000 µM in data set [2] (2 hours, 1.0 mM, read-out: In vitro cytoxicity in oxic cells (% survival at 2 hours)) is 82.4%; in data set [5] (2 hours, 1.0 mM, read-out: In vitro cytoxicity in hypoxic cells (% survival at 2 hours)) it was 59.6%. Also, the viability at 4 h, 100 µM in data set [2] (setting [9]) came to 99%; in data set [5] (setting [11]), 56.7%. In addition, the viability at 4 h, 250 µM in data set [2] (4 hours, 0.25 mM, read-out: In vitro cytoxicity in oxic cells (% survival at 4 hours)) is 104%; in data set [5] (4 hours, 0.25 mM, read-out: In vitro cytoxicity in hypoxic cells (% survival at 4 hours)) it was 26.7%. Further, in data set [4], the “Differential toxicity” value is “Yes”. In the data set “in vivo”, this compound returned an LD50 at 24 h of 3300 mg/kg. For the same compound, the viability at 4 h, 500 µM in data set [5] (setting [11]) is 15.8%. In addition, the viability at 4 h, 1000 µM in data set [5] (4 hours, 1.0 mM, read-out: In vitro cytoxicity in hypoxic cells (% survival at 4 hours)) turned out to be 0%.

On to `Cc1ncc([N+](=O)[O-])n1CCO` [O, Metronidazole], for which the “Radiosensitization (enhancement ratio in Chinese hamster cells)” value in data set [1] (1.0 mM) is on record as 1.5. The radiosensitization activity result in the data set on hypoxic tumor cells (in vivo and in vitro) was “active both in vivo and in vitro”. In the data set on hypoxic tumor cells, the effectiveness in vivo result was “effective in vivo”. In addition, in data set [4], the “Differential toxicity” value was “Yes”. In addition, the “side effects in mice” value in the data set with central nervous system (in vivo, po) is “peripheral neuropathy and convulsions in mice”. Further, the “central nervous system toxicity” value in the data set on central nervous system (in vivo) is reported as “central nervous system toxicity is a limiting factor for their use in humans”.

On to `COCC(O)Cn1ccnc1[N+](=O)[O-]` (centres unmarked) [N, Misonidazole], for which, in the data set on hypoxic tumor cells, the effectiveness in vivo result was “effective in vivo”. Further, the “Differential toxicity” value in data set [4] is “Yes”. Further, the “side effects in mice” value with central nervous system (administered orally) was “peripheral neuropathy and convulsions in mice”. The “central nervous system toxicity” value in the data set with central nervous system (use in humans) is “central nervous system toxicity is a limiting factor for their use in humans”.

For `CC(=O)OC[C@H]1O[C@H](n2ccnc2[N+](=O)[O-])C=C[C@@H]1OC(C)=O` [B, 1(4',6di-O--acetyl2',3didehydro-2',3dideoxy-D-erythro-hexopyranosyl)-2-ni roimidazole], the “Radiosensitization (enhancement ratio in Chinese hamster cells)” value in data set [1] (0.5 mM) turned out to be 2.0. Moreover, the viability at 2 h, 10 µM in data set [2] (setting [6]) stood at 106%. The viability at 2 h, 50 µM in data set [2] (setting [7]) is 100%. Besides, in data set [2] (setting [8]), the viability at 2 h, 100 µM was determined as 103% and the viability at 2 h, 500 µM was 100%. Moreover, the viability at 4 h, 10 µM in data set [2] (4 hours, 0.01 mM, read-out: In vitro cytoxicity in oxic cells (% survival at 4 hours)) was determined as 100%. The viability at 4 h, 50 µM in data set [2] (4 hours, 0.05 mM, read-out: In vitro cytoxicity in oxic cells (% survival at 4 hours)) was found to be 100%. Further, in data set [2] (setting [9]), the viability at 4 h, 100 µM worked out at 101% and the viability at 4 h, 500 µM is 102%. The “Differential toxicity” value in data set [4] is “Yes”. For the same compound, in data set [5] (setting [10]), the viability at 2 h, 100 µM was 90.9% and the viability at 2 h, 500 µM amounted to 100%. In data set [5] (setting [11]), the viability at 4 h, 100 µM is 96% and the viability at 4 h, 500 µM turned out to be 60.3%.
